This note sets out measurements from ChEMBL document CHEMBL1158237, “Jineol, a Cytotoxic Alkaloid from the Centipede Scolopendra subspinipes” (1996).

Values after ≈ are worked out from the molar mass of the structure shown. Active and inactive are the calls of the source. The rule behind the calls is not given here.

One experiment deals with XF498. Put plainly: Cytotoxicity against human XF498 cells by SRB assay. It is filed as functional. The conditions noted are these: read-out: ED50 (the source's name). For orientation: Sulforhodamine B stains cellular protein and so reports cell mass.
The subject of a further experiment is HCT-15. The experiment in a line: Cytotoxicity against human HCT15 cells by SRB assay. Format: functional. The conditions noted are these: read-out: ED50 (the source's name).
Another experiment deals with SK-MEL-2. The experiment in a line: Cytotoxicity against human SK-MEL-2 cells by SRB assay. It is filed as functional. The conditions noted are these: read-out: ED50 (the source's name).
A further experiment concerns SK-OV-3. Put plainly: Cytotoxicity against human SKOV3 cells by SRB assay. It is filed as functional. The conditions noted are these: read-out: ED50 (the source's name).
In a further experiment the test system is A549. Put plainly: Cytotoxicity against human A549 cells by SRB assay. Format: functional. The settings on record: read-out: ED50 (the source's name).
For experiment [1], the system named is Trichophyton mentagrophytes. Put plainly: Antifungal activity against Trichophyton mentagrophytes by agar diffusion assay. It is filed as functional, organism-based.

For `COc1cnc2c(OC)cccc2c1` [JINEOL METHYL ETHER], the EC50 in the experiment on XF498 came out at 29 µg/mL (≈ 153 µM); in the experiment with HCT-15, 42 µg/mL (≈ 222 µM); in the experiment on SK-MEL-2, 21 µg/mL (≈ 111 µM); in the experiment on SK-OV-3, 32 µg/mL (≈ 169 µM); with A549, 38 µg/mL (≈ 201 µM).
On the same counts, the results for `COc1cccc2c1C(=O)c1c(O)c3c(c(O)c1C2=O)C[C@@](O)(C(=O)CO)C[C@@H]3O[C@H]1C[C@H](N)[C@H](O)[C@H](C)O1` [DOXORUBICIN] are 0.1 µg/mL (≈ 0.184 µM), 1.8 µg/mL (≈ 3.31 µM), 0.05 µg/mL (≈ 0.092 µM), 0.11 µg/mL (≈ 0.202 µM) and 0.05 µg/mL (≈ 0.092 µM).
The matching figures for `CC(=O)Oc1cnc2c(OC(C)=O)cccc2c1` [JINEOL ACETATE]: 12 µg/mL, 8 µg/mL, 11 µg/mL, 14 µg/mL and 8 µg/mL.
For `Oc1cnc2c(O)cccc2c1` [JINEOL], in experiment [1], the result was Active. The EC50 with XF498 worked out at 10 µg/mL (≈ 62.1 µM); with HCT-15 it was 1.9 µg/mL (≈ 11.8 µM); with SK-MEL-2, 5.6 µg/mL (≈ 34.7 µM); in the experiment on SK-OV-3 it was 4.5 µg/mL (≈ 27.9 µM); with A549, 5.8 µg/mL (≈ 36 µM).
